Data published in patent US20170298314A1, “NANO-DROPLET PLATE” (Research Foundation of the City University of New York, priority 2016, published 2017).

System: HEK 293 cells
Experiment: Penetration of FAM-labeled cell permeable peptide into HEK 293 cells in alginate gel drops, CLSM imaging
Assay type: cell-based, Human
Conditions: 15 μg/mL, 5 mins incubation, 1% w/v alginate, 63× oil immersion lens
Experimental: High resolution observation of reactions between peptides and cells. Not only should proteins and peptides diffuse through the gel, they should also be able to react with cells, for drug screening applications. […] Sodium alginate solution (1% w/v) was mixed with a HEK 293 cell suspension and used as a source solution for single dispensing on 750 μm diameter nDAP anvils using a single robotically controlled rod. The alginate was cured with 1% calcium chloride for 5 min. […] The holder was filled with medium and imaged using a confocal microscope (CLSM). After the cells were imaged, a 15 μg/mL solution of (Arg)9 was introduced using a syringe, displacing the medium. […] The holder enables observation of single cells at high resolution while permitting the exchange of solutions without interfering with the gel anchor on the nDAPs.

## (Arg)9
  penetration into HEK 293 cells through gel: Two cells with cell permeable protein were clearly seen
